This series concerns the target T1, adenosine deaminase (ADA) (Homo sapiens, UniProt P00813).
T1 construct: purchased Sigma
T1 sequence (P00813 1-363): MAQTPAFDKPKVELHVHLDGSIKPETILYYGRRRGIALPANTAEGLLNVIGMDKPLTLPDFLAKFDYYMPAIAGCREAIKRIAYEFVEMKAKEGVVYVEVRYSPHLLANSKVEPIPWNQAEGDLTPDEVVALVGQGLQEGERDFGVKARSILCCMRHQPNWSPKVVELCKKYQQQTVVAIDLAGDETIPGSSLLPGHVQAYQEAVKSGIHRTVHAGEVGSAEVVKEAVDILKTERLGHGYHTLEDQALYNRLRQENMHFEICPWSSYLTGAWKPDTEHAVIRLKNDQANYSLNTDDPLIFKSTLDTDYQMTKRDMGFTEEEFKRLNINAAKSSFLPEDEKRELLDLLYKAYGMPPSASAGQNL
In words: Cell viability with adenosine derivatives in presence or absence of ADA, normoxic conditions (Example 2). It is filed as cell-based. The note with it: presence of ADA. As for the experimental part:
Three known ADA inhibitors were examined to evaluate the efficacies of adenosine derivatives: cladribine, pentostatin, and fludarabine phosphate. They have similar structures and molecular weights compared to adenosine, but different functional groups in the structures. Metabolic rate of cells were indirectly analyzed by cell viability in the presence or absence of adenosine derivatives and ADA in various doses. Cell viability with the drugs was evaluated under normoxic conditions.
Adenosine (Sigma-Aldrich), cladribine (Sigma, 2-Chloro-2′-deoxyadenosine), pentostatin (Tocris biosciences), and fludarabine phosphate (LGM Pharma) were used throughout this study.

The text below walks through data of US20150025031A1, “METABOLIC DOWNREGULATION FOR CELL SURVIVAL” (WAKE FOREST UNIVERSITY HEALTH SCIENCES, priority 2012, published 2015).

Regarding `Nc1ncnc2c1ncn2[C@@H]1O[C@H](CO)[C@@H](O)[C@H]1O` [adenosine], the “conversion by ADA / stability towards adenosine degrading enzymes” value was “lost its activity in presence of ADA”.
